From PubChem BioAssay AID2060500 (Molecular Pharmacology Branch, DTP, NCI, 2025)

Test system: 596521-263-R-J1-PDC complex spheroids, viability % of control
Assay: Anticancer human tumor 596521-263-R-J1-PDC patient-derived soft tissue sarcoma cell line growth inhibition [GQUAD]
Details: for IC50: curve of first compound; for viability, T/C: stronger effect = lower value
Excerpt: DNA G-quadruplex Stabilizer Agents in Combinations in Complex Spheroids
A high-throughput screen of multi-cell type tumor spheroids was designed to identify active combinations of DNA G-quadruplex stabilizer agents and targeted small molecules. Complex spheroids include a stromal component modeled by human endothelial cells (HUVEC) and fibroblasts modeled by human mesenchymal stem cells (MSCs). The concentration ranges selected for each drug and investigational agent were based upon clinically achievable concentrations if the clinical Cmax of the agent was known.
Compounds. The drugs and investigational agents: pidnarulex (CX-5461; NSC782164), APTO-253 (NSC789042), BRACO-19 (NSC847499), peposertib (NSC802822), ceralasertib (NSC780249), elimusertib (NSC800525), camonsertib (NSC841442), AZD-1390 (NSC803789), olaparib (NSC753686), talazoparib (NSC767125), ART-558 (NSC835418), sotorasib (NSC818433), MRTX-1133 (NSC836407), SN-38 (NSC673596), topotecan (NSC609699), etoposide (NSC141540), doxorubicin (NSC123127), gemcitabine (NSC613327), 5-fluorouracil (NSC19893), paclitaxel (NSC125973), vemurafenib (NSC761431), panobinostat (NSC761190), R-306465 (JNJ-16241199; NSC773264), adavosertib (NSC754352), TP-3654 (NSC805149), carboplatin (NSC241240), KSQ-4279 (NSC840948), and staurosporine (NSC755774) were obtained from the National Cancer Institute (NCI) Developmental Therapeutics Program Chemical Repository (34). The FDA-approved anticancer drug set is available from the NCI Developmental Therapeutics Program. […] The stock solutions were prepared in dimethyl sulfoxide (DMSO, Sigma-Aldrich, St. Louis, MO, cat. D2650) at 800-fold the tested concentration and stored at -70 degrees C prior to their use. All drugs and investigational agents were tested over a range starting from a high concentration at or near the clinical Cmax and decreasing in half-log increments. If the clinical Cmax for an agent had not been determined, the highest concentration tested was 10 microM.
2.3 Cell Culture. All cells were maintained in an incubator at 37 degrees C and 5% CO2 with 95% humidity. The PDC lines were cultured according to standard operating procedures established by the NCI PDMR. All PDCs were thawed and cultured in Matrigel-coated flasks prepared with a working solution of 1X Ham's F-12 nutrient mix, without supplementation (Invitrogen, cat. 11765054), 100 U/mL penicillin-streptomycin (Invitrogen, cat. 15140122), and 2.5% Matrigel (Corning Inc., cat. 354248) for the first three passages. The 857933-349-R-J2-PDC line was cultured in 6C/Colon 1B media, which includes advanced DMEM/F-12 (Thermo Fisher Scientific, cat. 12634028), 10 mM HEPES (Thermo Fisher Scientific, cat. 15630080), 1X GlutaMAX supplement (Thermo Fisher Scientific, cat. 35050061), 0.1 mg/mL primocin (InvivoGen, cat. ant-pm-2), 10% defined fetal bovine serum, heat inactivated (HyClone Laboratories Inc., cat. SH30070.03HI), 50% L-WRN conditioned media (ATCC, cat. CRL-3276), 1.25 mM N-Acetyl-L-cysteine (Sigma-Aldrich, cat. A9165), 10 mM nicotinamide (Sigma-Aldrich, cat. N0636), 1X B-27 supplement (Thermo Fisher Scientific, cat. 17504044), 1X N-2 supplement (Thermo Fisher Scientific, cat. 17502048), 10 microM Y-27632 dihydrochloride (Tocris Bioscience, cat. 1254), and 50 ng/mL human EGF recombinant protein (Thermo Fisher Scientific, cat. PHG0311). The 485176-168-R4-J1-PDC line was cultured in Panc media, which includes all 6C/Colon 1B media components plus 100 ng/mL human FGF-10 (Thermo Fisher Scientific, cat. 100-26), 500 nM SB-431542 (Selleckchem, cat. S1067), and gastrin (Tocris, cat. 3006).
[…]

[1] = second compound 0.0316 µM, first compound 0.0316 µM
[2] = second compound 0.0316 µM, first compound 0.316 µM
[3] = second compound 0.1 µM, first compound 0.0316 µM
[4] = second compound 0.1 µM, first compound 0.316 µM
[5] = second compound 0.316 µM, first compound 0.0316 µM
[6] = second compound 0.316 µM, first compound 0.316 µM
[7] = second compound 1 µM, first compound 0.0316 µM
[8] = second compound 1 µM, first compound 0.316 µM
[9] = second compound 3.16 µM, first compound 0.0316 µM
[10] = second compound 3.16 µM, first compound 0.316 µM
[11] = second compound 10 µM, first compound 0.0316 µM
[12] = second compound 10 µM, first compound 0.316 µM
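Note: spheroids exposed to drugs for 7 days before viability reading.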

In the case of CCc1c2c(nc3ccc(O)cc13)-c1cc3c(c(=O)n1C2)COC(=O)[C@]3(O)CC + CN(C)c1ccc(Nc2c3ccc(NC(=O)CCN4CCCC4)cc3nc3cc(NC(=O)CCN4CCCC4)ccc23)cc1, the IC50 (second compound 0.0316 µM) is reported as 5.08 nM, the IC50 (second compound 0.1 µM) is reported as 4.06 nM and the IC50 (second compound 0.316 µM) is reported as 3.51 nM. For the same compound, the IC50 (second compound 1 µM) was 7.44 nM, the IC50 (second compound 3.16 µM) was 5.64 nM and the IC50 (second compound 10 µM) was 3.75 nM. It also gave a viability, T/C (second compound 0.0316 µM, first compound 0.000999 µM) of 66.2%, a viability, T/C (second compound 0.0316 µM, first compound 0.00316 µM) of 54.6% and a viability, T/C (second compound 0.0316 µM, first compound 0.00999 µM) of 43.2%. For the same compound, the viability, T/C [1] was 28.7%, the viability, T/C (second compound 0.0316 µM, first compound 0.0999 µM) was 16.5% and the viability, T/C [2] was 7.38%. The viability, T/C (second compound 0.1 µM, first compound 0.000999 µM) was 60.4%, the viability, T/C (second compound 0.1 µM, first compound 0.00316 µM) was 51.8% and the viability, T/C (second compound 0.1 µM, first compound 0.00999 µM) was 41.3%. For the same compound, the viability, T/C [3] was 28.5%, the viability, T/C (second compound 0.1 µM, first compound 0.0999 µM) was 15.6% and the viability, T/C [4] was 9.53%. It also gave a viability, T/C (second compound 0.316 µM, first compound 0.000999 µM) of 61.8%, a viability, T/C (second compound 0.316 µM, first compound 0.00316 µM) of 50.7% and a viability, T/C (second compound 0.316 µM, first compound 0.00999 µM) of 39.1%. The viability, T/C [5] was 28.9%, the viability, T/C (second compound 0.316 µM, first compound 0.0999 µM) was 15.4% and the viability, T/C [6] was 8.17%. It also gave a viability, T/C (second compound 1 µM, first compound 0.000999 µM) of 61.1%, a viability, T/C (second compound 1 µM, first compound 0.00316 µM) of 57% and a viability, T/C (second compound 1 µM, first compound 0.00999 µM) of 47.5%. It also gave a viability, T/C [7] of 32.3%, a viability, T/C (second compound 1 µM, first compound 0.0999 µM) of 16.7% and a viability, T/C [8] of 7.43%. The viability, T/C (second compound 3.16 µM, first compound 0.000999 µM) was 58.6%, the viability, T/C (second compound 3.16 µM, first compound 0.00316 µM) was 54.7% and the viability, T/C (second compound 3.16 µM, first compound 0.00999 µM) was 46.6%. For the same compound, the viability, T/C [9] was 31.1%, the viability, T/C (second compound 3.16 µM, first compound 0.0999 µM) was 21.4% and the viability, T/C [10] was 9.32%. It also gave a viability, T/C (second compound 10 µM, first compound 0.000999 µM) of 52.9%, a viability, T/C (second compound 10 µM, first compound 0.00316 µM) of 52.7% and a viability, T/C (second compound 10 µM, first compound 0.00999 µM) of 44%. It also gave a viability, T/C [11] of 32.6%, a viability, T/C (second compound 10 µM, first compound 0.0999 µM) of 20.9% and a viability, T/C [12] of 9.92%.

In the case of Nc1ccn(C2OC(CO)C(O)C2(F)F)c(=O)n1 (centres undefined) + Cc1[nH]c2ccc(F)cc2c1-c1nc2c3cccnc3c3ncccc3c2[nH]1, the IC50 (second compound 0.0316 µM) is reported as 34.7 nM, the IC50 (second compound 0.1 µM) is reported as 58.1 nM and the IC50 (second compound 0.316 µM) is reported as under 31.6 nM. The IC50 (second compound 1 µM) was under 31.6 nM, the IC50 (second compound 3.16 µM) was 125 nM and the IC50 (second compound 10 µM) was under 31.6 nM. It also gave a viability, T/C [1] of 54.6%, a viability, T/C (second compound 0.0316 µM, first compound 0.1 µM) of 45.5% and a viability, T/C [2] of 38.1%. For the same compound, the viability, T/C (second compound 0.0316 µM, first compound 1 µM) was 38.7%, the viability, T/C (second compound 0.0316 µM, first compound 3.16 µM) was 42.6% and the viability, T/C (second compound 0.0316 µM, first compound 10 µM) was 32.9%. For the same compound, the viability, T/C [3] was 57%, the viability, T/C (second compound 0.1 µM, first compound 0.1 µM) was 47.2% and the viability, T/C [4] was 38%. It also gave a viability, T/C (second compound 0.1 µM, first compound 1 µM) of 47.2%, a viability, T/C (second compound 0.1 µM, first compound 3.16 µM) of 39.2% and a viability, T/C (second compound 0.1 µM, first compound 10 µM) of 41.5%. For the same compound, the viability, T/C [5] was 57%, the viability, T/C (second compound 0.316 µM, first compound 0.1 µM) was 39% and the viability, T/C [6] was 36.4%. For the same compound, the viability, T/C (second compound 0.316 µM, first compound 1 µM) was 44.2%, the viability, T/C (second compound 0.316 µM, first compound 3.16 µM) was 45.4% and the viability, T/C (second compound 0.316 µM, first compound 10 µM) was 41.1%. The viability, T/C [7] was 53.3%, the viability, T/C (second compound 1 µM, first compound 0.1 µM) was 38.3% and the viability, T/C [8] was 43.6%. It also gave a viability, T/C (second compound 1 µM, first compound 1 µM) of 39.3%, a viability, T/C (second compound 1 µM, first compound 3.16 µM) of 40.8% and a viability, T/C (second compound 1 µM, first compound 10 µM) of 37.9%. It also gave a viability, T/C [9] of 60.7%, a viability, T/C (second compound 3.16 µM, first compound 0.1 µM) of 49.2% and a viability, T/C [10] of 43%. For the same compound, the viability, T/C (second compound 3.16 µM, first compound 1 µM) was 42%, the viability, T/C (second compound 3.16 µM, first compound 3.16 µM) was 42.7% and the viability, T/C (second compound 3.16 µM, first compound 10 µM) was 30.7%. The viability, T/C [11] was 56.7%, the viability, T/C (second compound 10 µM, first compound 0.1 µM) was 37.3% and the viability, T/C [12] was 38.8%. It also gave a viability, T/C (second compound 10 µM, first compound 1 µM) of 32.7%, a viability, T/C (second compound 10 µM, first compound 3.16 µM) of 38.2% and a viability, T/C (second compound 10 µM, first compound 10 µM) of 36.3%.
